Experimental data from ChEMBL document CHEMBL2331529, “Design and Synthesis of Potent Bivalent Peptide Agonists Targeting the EphA2 Receptor” (ACS Med Chem Lett, 2013).
Active and inactive are the calls of the source. No cut-off for these calls is given here.

Columns and labels:
[1] = target: Ephrin type-A receptor 2 (Homo sapiens, UniProt P29317); experiment: Agonist activity at IgG1 Fc region fused-immobilized EphA2 ectodomain (unknown origin) assessed as inhibition of EphA2/ephrin-A5 AP interaction incubated for 3 hrs by ELISA
Sequence of Ephrin type-A receptor 2 (P29317 whole entry, the tested form may be a part): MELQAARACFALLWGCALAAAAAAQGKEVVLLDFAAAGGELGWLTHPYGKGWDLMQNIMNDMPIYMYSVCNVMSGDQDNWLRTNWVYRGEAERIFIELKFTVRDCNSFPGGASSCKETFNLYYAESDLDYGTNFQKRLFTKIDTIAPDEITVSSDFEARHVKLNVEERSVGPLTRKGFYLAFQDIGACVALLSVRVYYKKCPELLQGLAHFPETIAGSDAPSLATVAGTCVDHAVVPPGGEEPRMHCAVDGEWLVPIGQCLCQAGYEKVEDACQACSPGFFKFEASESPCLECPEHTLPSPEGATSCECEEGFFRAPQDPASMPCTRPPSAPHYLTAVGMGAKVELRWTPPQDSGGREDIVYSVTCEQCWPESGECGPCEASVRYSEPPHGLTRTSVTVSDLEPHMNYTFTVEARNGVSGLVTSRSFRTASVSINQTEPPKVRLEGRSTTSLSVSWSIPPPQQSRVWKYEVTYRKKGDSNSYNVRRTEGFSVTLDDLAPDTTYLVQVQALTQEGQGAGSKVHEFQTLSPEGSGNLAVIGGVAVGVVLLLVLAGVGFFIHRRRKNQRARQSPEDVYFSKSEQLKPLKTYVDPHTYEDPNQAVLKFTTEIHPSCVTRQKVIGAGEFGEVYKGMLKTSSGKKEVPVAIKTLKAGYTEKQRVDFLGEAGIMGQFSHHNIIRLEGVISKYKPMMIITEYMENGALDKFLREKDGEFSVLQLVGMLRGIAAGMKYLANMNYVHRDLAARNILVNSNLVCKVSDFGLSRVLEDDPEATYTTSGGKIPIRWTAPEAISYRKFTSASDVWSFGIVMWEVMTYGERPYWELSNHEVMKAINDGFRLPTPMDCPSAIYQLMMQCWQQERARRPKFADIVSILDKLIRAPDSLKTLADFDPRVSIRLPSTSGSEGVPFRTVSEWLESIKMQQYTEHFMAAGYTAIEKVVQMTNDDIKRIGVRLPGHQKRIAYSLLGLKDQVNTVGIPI

[2] = target: T1, Ephrin type-B receptor 2 (Homo sapiens) (UniProt P29323); experiment: Agonist activity at IgG1 Fc region fused-immobilized EphB2 (unknown origin) assessed as inhibition of EphB2/ephrin-B2 AP interaction at 10 uM incubated for 3 hrs by ELISA
T1 sequence (whole entry): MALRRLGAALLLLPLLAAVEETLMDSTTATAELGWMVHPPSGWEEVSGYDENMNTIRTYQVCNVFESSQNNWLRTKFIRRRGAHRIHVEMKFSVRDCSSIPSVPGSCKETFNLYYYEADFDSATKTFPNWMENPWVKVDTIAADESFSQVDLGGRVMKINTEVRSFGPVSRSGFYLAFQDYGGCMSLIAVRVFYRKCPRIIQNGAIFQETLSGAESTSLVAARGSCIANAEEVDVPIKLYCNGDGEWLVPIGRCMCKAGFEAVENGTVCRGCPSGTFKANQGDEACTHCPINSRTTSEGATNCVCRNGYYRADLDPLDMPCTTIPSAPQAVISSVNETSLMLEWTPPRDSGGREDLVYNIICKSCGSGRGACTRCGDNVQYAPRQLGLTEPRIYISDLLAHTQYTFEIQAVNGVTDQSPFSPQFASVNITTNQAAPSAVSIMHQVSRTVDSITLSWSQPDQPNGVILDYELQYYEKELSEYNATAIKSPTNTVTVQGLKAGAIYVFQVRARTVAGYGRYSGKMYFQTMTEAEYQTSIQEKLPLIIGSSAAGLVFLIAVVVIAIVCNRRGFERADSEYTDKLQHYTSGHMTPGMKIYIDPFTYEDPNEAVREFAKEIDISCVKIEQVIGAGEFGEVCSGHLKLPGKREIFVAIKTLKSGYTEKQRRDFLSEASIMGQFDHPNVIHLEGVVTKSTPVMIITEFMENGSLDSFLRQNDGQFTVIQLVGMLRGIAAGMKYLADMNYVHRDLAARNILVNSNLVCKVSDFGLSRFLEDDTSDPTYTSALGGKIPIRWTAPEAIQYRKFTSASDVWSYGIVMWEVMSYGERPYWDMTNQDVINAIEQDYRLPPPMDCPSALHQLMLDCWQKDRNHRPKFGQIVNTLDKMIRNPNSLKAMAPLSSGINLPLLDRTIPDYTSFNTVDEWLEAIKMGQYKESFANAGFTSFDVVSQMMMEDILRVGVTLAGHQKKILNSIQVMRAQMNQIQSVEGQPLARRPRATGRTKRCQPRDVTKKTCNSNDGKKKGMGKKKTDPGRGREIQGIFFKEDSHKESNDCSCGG

[3] = target: Ephrin type-A receptor 4 (Homo sapiens) (UniProt P54764); experiment: Agonist activity at IgG1 Fc region fused-immobilized EphA4 (unknown origin) assessed as inhibition of EphA4/ephrin-A5 AP interaction at 10 uM incubated for 3 hrs by ELISA
Sequence of Ephrin type-A receptor 4 (Homo sapiens) (P54764 whole entry, the tested form may be a part): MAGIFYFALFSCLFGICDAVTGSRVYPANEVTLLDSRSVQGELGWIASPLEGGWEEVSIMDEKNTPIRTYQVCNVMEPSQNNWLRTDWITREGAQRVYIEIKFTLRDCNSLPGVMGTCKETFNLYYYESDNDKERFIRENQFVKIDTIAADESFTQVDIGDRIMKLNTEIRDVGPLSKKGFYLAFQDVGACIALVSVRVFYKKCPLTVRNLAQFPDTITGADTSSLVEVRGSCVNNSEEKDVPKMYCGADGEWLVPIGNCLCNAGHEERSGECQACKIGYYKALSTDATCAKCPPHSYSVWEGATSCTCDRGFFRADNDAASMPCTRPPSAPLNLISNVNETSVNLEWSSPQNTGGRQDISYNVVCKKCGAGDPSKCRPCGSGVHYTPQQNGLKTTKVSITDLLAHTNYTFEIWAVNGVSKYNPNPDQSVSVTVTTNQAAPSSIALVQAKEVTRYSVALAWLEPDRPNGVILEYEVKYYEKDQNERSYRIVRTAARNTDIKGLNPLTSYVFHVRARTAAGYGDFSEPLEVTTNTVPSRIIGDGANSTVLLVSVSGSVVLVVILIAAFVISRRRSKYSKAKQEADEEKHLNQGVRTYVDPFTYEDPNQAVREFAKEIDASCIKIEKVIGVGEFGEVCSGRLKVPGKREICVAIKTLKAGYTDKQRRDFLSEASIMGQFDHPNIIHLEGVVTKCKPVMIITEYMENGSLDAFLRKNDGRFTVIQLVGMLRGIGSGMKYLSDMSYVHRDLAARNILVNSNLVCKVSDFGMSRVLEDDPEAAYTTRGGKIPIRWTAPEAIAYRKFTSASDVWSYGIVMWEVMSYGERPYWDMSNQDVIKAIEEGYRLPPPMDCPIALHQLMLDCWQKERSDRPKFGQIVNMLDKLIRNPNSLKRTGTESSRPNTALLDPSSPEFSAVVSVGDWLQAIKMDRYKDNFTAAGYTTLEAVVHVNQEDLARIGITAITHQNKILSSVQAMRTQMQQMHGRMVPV

IC50 [1] [µM] | inhibition [2] | inhibition [3] | Compound
> 100 | – | – | H-SWLSYPGAVSYR-OH
– | Active | Active | CC(C)C[C@H](NC(=O)[C@H](C)NC(=O)[C@H](Cc1ccc(O)cc1)NC(=O)[C@@H]1CCCN1C(=O)CNC(=O)[C@H](C)NC(=O)[C@@H](NC(=O)[C@H](CO)NC(=O)[C@H](Cc1ccc(O)cc1)NC(=O)[C@H](CCCNC(=N)N)NC(=O)[C@H](CCCCNC(=O)CCCCCN)NC(=O)[C@H](CCCNC(=N)N)NC(=O)[C@H](Cc1ccc(O)cc1)NC(=O)[C@H](CO)NC(=O)[C@@H](NC(=O)[C@H](C)NC(=O)CNC(=O)[C@@H]1CCCN1C(=O)[C@H](Cc1ccc(O)cc1)NC(=O)[C@H](C)NC(=O)[C@H](CC(C)C)NC(=O)[C@H](Cc1c[nH]c2ccccc12)NC(=O)[C@@H](N)CO)C(C)C)C(C)C)C(=O)N[C@@H](Cc1c[nH]c2ccccc12)C(=O)N[C@@H](CO)C(=O)O
≥ 100 | – | – | H-SWLAYAGAVSYR-OH
≥ 100 | – | – | H-SALAYPGAVSYR-OH
≥ 100 | – | – | H-SWLAAPGAVSYR-OH
